{"source": "patent US20250066480A1", "about": "“METHODS TO ENHANCE EFFICACY OF COMBINED TARGETING OF IMMUNE CHECKPOINT AND MAPK PATHWAYS” (THE REGENTS OF THE UNIVERSITY OF CALIFORNIA, priority 2021, published 2025)", "key": {"NRAS^MUT melanoma": {"tested_on": "NRAS^MUT melanoma", "settings": "patients with NRAS^MUT melanoma; cited from earlier work"}, "[1]": {"tested_on": "intratumoral T-cell clonotypes (YUMM1.7ER metastases)", "experiment": "Bulk tumor TCR-seq of tumor-involved brain and ovarian tissues", "assay_type": "in vivo, mouse", "settings": "on d3; FIG. 6B", "procedure": "Total RNA was extracted from frozen tissue stored in RNALater using the QIAGEN All Prep DNA/RNA Mini Kit. RNA quality was measured using Bioanalyzer (Agilent). 710 ng-1,000 ng of RNA from ovary and brain tissues (RNA Integrity Number (RIN) score >7) was used as input to construct libraries with the QIAGEN QIAseq Immune Repertoire RNA Library Kit—T cell Receptor Panel (Qiagen). Briefly, RNA was reverse transcribed using a pool of TCR gene-specific primers against the constant region for the T cell receptor alpha, beta, gamma, and delta genes. The resulting cDNA was then ligated to an oligo containing one side of sample index and unique molecular index (UMI). […] The dual-indexed sample PCR fragment was purified and then quantified for absolute quantification of amplifiable libraries (DNA with adaptors at both ends) in triplicate by real-time qPCR using QIAGEN QIAseq Library Quant Array Kit. […] 12 μM of denatured library pool was run with QIAseq A Read1 Primer on Illumina NextSeq 500 Mid Output Kit using v2.5 chemistry for 300 cycles with an asymmetrical paired end 261/41 bp read for CDR3 region.\nAs reported previously (10), raw reads were submitted to the QIAGEN GeneGlobe Data Analysis Center (qiagen.com/us/shop/genes-and-pathways/data-analysis-center-overview-page/) to estimate the abundance of reads of unique CDR3 sequence and generate TCR clonotype calls. […]"}, "[2]": {"tested_on": "YUMM1.7ER-luc (Braf^V600E melanoma) intracranial and extracranial metastases", "experiment": "Experimental metastasis of syngeneic melanoma (intracardiac injection, BLI, survival)", "settings": "MEKi monotherapy from d0", "procedure": "YUMM1.7ER melanoma cells were engineered to express firefly luciferase (YUMM1.7ER-luc). Before every IC injection, cells were selected for stable luciferase expression by blasticidin treatment, yielding cells (1 million) that emitted luciferase light units of 5e8 to 5e9 in vitro. C57BL/6 (6-8 weeks old, female), after anesthesia with vaporized isoflurane (2.0-2.5%), were injected with 1×10^6 cells/mouse into the left ventricle for intracardiac inoculation. Progression of metastatic tumor burden and treatment effects in mice were monitored in vivo and ex vivo by bioluminescent imaging (BLI). We acquired BLI on both ventral and dorsal sides twice weekly until study endpoints (total ventral or dorsal BLI signal in the range of 1e9-1e10, moribund, or death). Mice were anesthetized with vaporized isoflurane; D-luciferin (150 mg luciferin/kg, Caliper Life Sciences) dosed by intraperitoneal injections; and, 10 minutes after injections, luciferase activities were measured with IVIS Lumina II Imaging System (PerkinElmer). Image analysis was performed with Living Image 4.7.2 Version (PerkinElmer). For ex vivo BLI, mice were euthanized 10 minutes after intraperitoneal injection of D-luciferin by cervical dislocation and organs were excised and imaged ex vivo by the IVIS system. […]"}}, "data": [{"smiles": "Cn1cnc2c(F)c(Nc3ccc(Br)cc3F)c(C(=O)NOCCO)cc21", "note": "[binimetinib]", "values": [{"measurement": "Clinical benefit (median PFS, confirmed overall response, median duration of objective response) in association with prior ICT", "setting": "NRAS^MUT melanoma", "value": "greater clinical benefit"}]}, {"smiles": "CC(=O)Nc1cccc(-n2c(=O)n(C3CC3)c(=O)c3c(Nc4ccc(I)cc4F)n(C)c(=O)c(C)c32)c1", "note": "[Trametinib, trametinib]", "values": [{"measurement": "Fraction of overlapping TCR clones between two distinct regions of tumor-involved brain tissues", "setting": "[1]", "value": "6.17-9.77%"}, {"measurement": "Delay of MBM", "setting": "[2]", "value": "~1.5", "unit": "weeks"}]}]}
